Experimental data taken from patent publication US12201620B2, “Compositions and methods for treating chemotherapy resistant cancer” (The Brigham And Women's Hospital, Inc., priority 2016, dated 2025).
“Also recorded” adds a separate entry of the source.

Tests used:
[1] = test system: Molm13 PPM1D-mutant and control single cell clones; assay: 72-hour cell viability analysis; format: cell-based, human
Protocol: FIG. 2B provides immunoblots of whole cell lysates from Molm13 control cells (control), PPM1D-mutant pooled clones and PPM1D frame-shift (fs) mutant single cell clones probed with anti-PPM1D and anti-Actin. […] FIG. 2D is a plot depicting viability assays in Molm13 PPM1D-mutant or control single cells clones that were treated with increasing concentrations of cyclophosphamide for 72 hours. FIG. 2E is a plot depicting viability assays in Molm13 PPM1D-mutant or control single cells clones that were treated with increasing concentrations of cisplatin for 72 hours. […] FIG. 2G is a plot depicting flow cytometric readout of competition experiment with 5% pooled Molm13 PPM1D-mutant cells and 95% pooled Molm13 control cells exposed to 350 nM Cyclophosphamide or vehicle for 24 days. FIG. 2H is a plot depicting flow cytometric readout of competition experiment with 5% pooled Molm13 PPM1D-mutant cells and 95% pooled Molm13 control cells exposed to 1 μM Cisplatin or vehicle for 24 days. […] PPM1D and control sgRNAs were identified through their fluorophores.
The line represents the locally weighted scatterplot smoothing (LOESS) of 0.1. […] FIG. 8B is a vector map of the degradation reporter vector, with different PPM1D cDNA constructs inserted. FIG. 8C is a graph showing EGFP/mCherry ratio for Molm13 cells with overexpression of wild type PPM1D, truncated PPM1D or the C-terminal end of PPM1D. FIG. 8D is a graph showing EGFP/mCherry ratio for Molm13 p53^−/− cells with overexpression of wild type PPM1D, truncated PPM1D or the C-terminal end of PPM1D. FIG. 8E is a graph showing EGFP/mCherry ratio in Molm13 cells before and after exposure to MG132 (10 μM, 6 hours), normalized to pre-treatment values. FIG. 8F is a plot showing cell viability analysis in Molm13 control cells (control), Molm13 PPM1D truncating mutant cells (PPM1D mutant) and Molm13 cells with overexpression of wild-type PPM1D (WT overexpression). […] For all experiments the following apply: *=p<0.05, **=p<0.01, ***=p<0.001,****=p<0.0001
(§1) 72 hour cell viability analysis in Molm13 PPM1D-mutant and control single cell clones after exposure to increasing doses of GSK2830371. FIG. 10F is a graph showing percent Annexin V positive cells in cells treated with PPM1D inhibitor or vehicle. Annexin V staining and flow cytometric analysis of Molm13 PPM1D-mutant and control single cell clones exposed to 3 μM of GSK2830371. *=p<0.05, **=p<0.01, ***=p<0.001
To study the role of PPM1D mutations in chemotherapy resistance, mutations in PPM1D were induced using the CRISPR-Cas9 system. […] Using sequence verified PPM1D mutant (fs) and empty vector control Molm13 cells, the effects of mutant and wild type PPM1D in the response to DNA damaging chemotherapy were analyzed. […] (FIG. 1C).
(§2) To study the sensitivity of PPM1D truncating mutations to chemotherapy exposure, frame-shift mutations were introduced in the PPM1D gene in Molm13 AML cells, which are TP53 wild-type, using CRISPR-Cas9.

[2] = test system: Molm13 PPM1D-mutant cells; assay: Quantitative phosphoproteomic analysis (KEGG P53 pathway phosphosites); format: cell-based, human; conditions: 400 nM AraC + 1 μM GSK2830371, 4 hours
Protocol: as §1
To explore the spectrum of PPM1D targets in hematopoietic cells, a quantitative phosphoproteomic analysis was performed in PPM1D wild-type and mutant cells at baseline and in response to chemotherapy. […] In addition, CDKN1A (p21) was identified as a new DNA damage response target of PPM1D. Based on the peptides with altered phosphorylation in PPM1D-mutant cells, a consensus sequence was identified for the serine-threonine phosphatase activity of PPM1D (FIGS. 9E and 9F). Because many phosphorylation sites are not located on peptides that are detected by mass spectrometry, the consensus sequence was used to predict additional PPM1D targets. Known PPM1D targets, including TP53, CHEK1, CHEK2, ATM, ATR and MDM2, bear the consensus target sequence. In addition, new phosphorylation sites were identified in components of the DNA damage response pathway that are predicted targets of PPM1D based on the consensus sequence. […]

[3] = test system: Molm13 PPM1D-mutant pooled cells and control pooled cells; assay: In vitro competition experiment, PPM1D-mutant cells mixed with control cells; format: cell-based, human; conditions: 1:9 ratio, 100 nM cytarabine plus 100 nM GSK2830371
Protocol: FIG. 2B provides immunoblots of whole cell lysates from Molm13 control cells (control), PPM1D-mutant pooled clones and PPM1D frame-shift (fs) mutant single cell clones probed with anti-PPM1D and anti-Actin. […] FIG. 2D is a plot depicting viability assays in Molm13 PPM1D-mutant or control single cells clones that were treated with increasing concentrations of cyclophosphamide for 72 hours. FIG. 2E is a plot depicting viability assays in Molm13 PPM1D-mutant or control single cells clones that were treated with increasing concentrations of cisplatin for 72 hours. […] FIG. […] FIG. […] PPM1D and control sgRNAs were identified through their fluorophores.
as §1, §2

[4] = test system: Molm13 PPM1D-mutant and Molm13 control single cell clones; assay: Immunoblot of whole cell lysates for p53 Ser15 and Chk1 Ser345 phosphorylation; format: cell-based, human; conditions: Molm13 PPM1D-mutant cells, 1 hour pretreated with GSK2830371, exposed to 400 nM cytarabine
[5] = target: T1, PPM1D phosphatase (Homo sapiens, UniProt O15297); conditions: Gilmartin et al. 2014; cited from earlier work
T1 sequence (O15297 1-605): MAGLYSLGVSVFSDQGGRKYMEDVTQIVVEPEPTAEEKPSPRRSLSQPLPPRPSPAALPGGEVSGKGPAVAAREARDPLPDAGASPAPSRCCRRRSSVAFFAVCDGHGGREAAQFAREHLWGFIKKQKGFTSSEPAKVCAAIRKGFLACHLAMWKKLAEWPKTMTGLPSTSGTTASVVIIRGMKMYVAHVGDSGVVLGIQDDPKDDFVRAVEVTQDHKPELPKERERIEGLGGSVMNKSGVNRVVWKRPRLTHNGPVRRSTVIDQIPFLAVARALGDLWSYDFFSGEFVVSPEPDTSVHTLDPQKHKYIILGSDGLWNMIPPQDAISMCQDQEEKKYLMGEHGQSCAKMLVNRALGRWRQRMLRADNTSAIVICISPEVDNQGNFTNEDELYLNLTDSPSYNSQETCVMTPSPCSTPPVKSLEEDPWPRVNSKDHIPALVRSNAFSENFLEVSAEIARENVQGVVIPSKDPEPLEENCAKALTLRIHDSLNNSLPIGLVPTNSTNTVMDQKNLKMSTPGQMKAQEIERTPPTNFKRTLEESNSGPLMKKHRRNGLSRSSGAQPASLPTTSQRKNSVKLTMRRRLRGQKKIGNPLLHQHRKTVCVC

[6] = test system: Molm13 PPM1D-mutant and control single cell clones; assay: Annexin V staining and flow cytometric analysis; format: cell-based, human; conditions: 3 μM of GSK2830371
Excerpt: FIG. 9E is a chart depicting the consensus sequence of PPM1D based on substrate analysis of 43 substrate candidates of PPM1D. FIG. 9F depicts 43 potential PPM1D substrate sites on pSer/Thr residues on 25 proteins. […] Only localized sites were considered. Figure discloses SEQ ID NOS 4-20 and 20-31, respectively, in order of appearance. FIG. 9G depicts a schema illustrating the components of the DNA-damage response pathway that are targeted by PPM1D in leukemia cells, based on the results from the phosphoproteomics analysis. Phospho-targets of PPM1D identified by mass spectrometry (FDR<0.1) are shown in bold. Predicted PPM1D target sites that were based on the identified consensus sequence with a glutamine at +1 and >2 acidic residues (p=3.595e-13, Fisher's exact test) are shown in italics.
as §1

Cc1ncc(Cl)cc1NCc1ccc(C(=O)N[C@@H](CC2CCCC2)C(=O)NC2CC2)s1 [GSK2830371]
sensitivity of PPM1D-mutant cells versus control cells to single agent PPM1D inhibitor, cell viability ([1]; 72 hour, increasing doses): PPM1D mutant cells had an increased sensitivity; also recorded: increased sensitivity to single agent PPM1D inhibitor treatment when compared to control cells; also recorded: increased sensitivity to PPM1D inhibition with either compound in comparison to wild type control cells; also recorded: selectively kills PPM1D-mutant cells | sensitivity of PPM1D-mutant cells to cytarabine when combined with PPM1D inhibitor ([1]; pre-treated 1 hour with 3 μM GSK2830371, 72-hour cytarabine treatment): increased the sensitivity of Molm13 PPM1D-mutant cells to cytarabine; also recorded: reverses the chemotherapy resistance phenotype | aberrant phosphorylation pattern of PPM1D-mutant cells in response to chemotherapy [2]: reversed the aberrant PPM1D mutant phosphorylation pattern; also recorded: complete reversal of the aberrant phosphorylation pattern | competitive advantage of PPM1D-mutant cells during cytarabine plus PPM1D inhibitor [3]: reversed the competitive advantage of PPM1D mutant cells; also recorded: could be reversed | p53 Ser15 phosphorylation with PPM1D inhibitor [4]: increased the phosphorylation of p53 | p53 Ser15 phosphorylation with PPM1D inhibitor ([4]; listed as GKS2830371): increased p53 Ser15 phosphorylation | selectivity for the PPM1D phosphatase [5]: highly selective for the PPM1D phosphatase | sensitivity of PPM1D-mutant cells versus control cells to single agent PPM1D inhibitor, Annexin V staining [6]: increased sensitivity to single agent PPM1D inhibitor treatment when compared to control cells
